Data from patent US10676433B2, “Indole derivatives and their use in neurodegenerative diseases” (Merck Patent GmbH, priority 2014, dated 2020).

Molecular target: human P2X7 receptor (Homo sapiens (Human), UniProt Q99572)
Experiment: Pore permeation assay (YO PRO dye uptake)
Type: cell-based
Conditions: HEK293 transfected with human P2X7 receptor, BzATP 10 uM, read-out: hP2X7 IC50
Experimental: Agonist-induced pore formation was determined by measuring cellular uptake of YO PRO fluorescence dye in HEK293 transfected with human P2X7 receptor. A HEK293 cell over expressing human P2X7 was harvested using HQTase reagent to detach the cells from T75 cm flask. The harvested cells are centrifuged @ 1200 rpm for 5 min at room temperature. The viability of cells was determined by Trypan blue dye and the cells are plated @ 10,000 cell/well in 50 ul volume in a 384W BD Poly lysine coated plate and incubated overnight at 37 C. […] The plate was centrifuged at 1000 rpm for 5 seconds and incubated at room temperature for 30 minutes. The uptake of YO PRO dye into the cells was measured using Envision Fluorescence plate reader instrument (Perkin Elmer).

Chain of human P2X7 receptor (Q99572 whole entry): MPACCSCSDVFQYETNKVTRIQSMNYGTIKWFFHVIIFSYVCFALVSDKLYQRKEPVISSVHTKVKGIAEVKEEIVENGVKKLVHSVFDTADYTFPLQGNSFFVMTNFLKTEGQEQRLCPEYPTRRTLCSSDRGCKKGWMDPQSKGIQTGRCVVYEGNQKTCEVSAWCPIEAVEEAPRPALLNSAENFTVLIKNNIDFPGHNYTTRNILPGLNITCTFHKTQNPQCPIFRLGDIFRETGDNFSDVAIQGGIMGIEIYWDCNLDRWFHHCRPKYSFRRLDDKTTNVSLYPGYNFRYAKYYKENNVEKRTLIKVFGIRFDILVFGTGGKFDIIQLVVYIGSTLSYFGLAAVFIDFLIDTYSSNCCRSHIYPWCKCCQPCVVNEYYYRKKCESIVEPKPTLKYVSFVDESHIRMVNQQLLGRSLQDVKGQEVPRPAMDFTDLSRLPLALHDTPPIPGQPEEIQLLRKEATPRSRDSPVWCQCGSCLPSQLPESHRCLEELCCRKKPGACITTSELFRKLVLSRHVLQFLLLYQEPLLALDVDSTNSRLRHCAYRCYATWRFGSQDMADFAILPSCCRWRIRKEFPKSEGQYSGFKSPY

## CC(O)(CNC(=O)c1cn(C2CCOC2)c2cccc(Cl)c12)C1CCCC1 (centres unmarked) [Compound 102, 4-Chloro-1-(tetrahydro-furan-3-yl)-1H-indole-3-carboxylic acid (2-cyclopentyl-2-hydroxy-propyl)-amide]
  IC50: > 1 µM

## 4-Chloro-1-oxetan-3-yl-1H-indole-3-carboxylic acid (2,2-difluoro-ethyl)-amide [Compound 76]
  IC50: > 1 µM
